{"source": "ChEMBL document CHEMBL3885861", "about": "“Open TG-GATES”", "organism": "Rattus norvegicus", "assay": "Open TG-GATES - Regimen: Daily Repeat", "type": "toxicity, organism-based, Sprague-Dawley", "set-up": "regimen Daily Repeat, gender Male, age 6 weeks", "conditions": "in vivo, po, 10 mg/kg, route gavage, dose level Low; for APTT / Bas / Eos / Fbg / Hb / Ht / Lym / MCHC / MCV / Mono / Neu / PT / Plat / RBC / Ret / WBC: tissue Blood", "key": {"[1]": {"conditions": "72 h, tissue Kidney, time 3 day"}, "[2]": {"conditions": "72 h, tissue Plasma, time 3 day"}}}
{"smiles": "CS(=O)(=O)Nc1ccc([N+](=O)[O-])cc1Oc1ccccc1", "note": "[NIMESULIDE]", "values": [{"measurement": "TERMINAL_BW", "setting": "72 h, time 3 day", "result": 219.5, "unit": "g"}, {"measurement": "APTT", "setting": "72 h, time 3 day", "result": 16.3, "unit": "s"}, {"measurement": "Bas", "setting": "72 h, time 3 day", "result": 0, "unit": "%"}, {"measurement": "Eos", "setting": "72 h, time 3 day", "result": 1.2, "unit": "%"}, {"measurement": "Fbg", "setting": "72 h, time 3 day", "result": 208.8, "unit": "mg/dL"}, {"measurement": "Hb", "setting": "72 h, time 3 day", "result": 14, "unit": "g/dL"}, {"measurement": "Ht", "setting": "72 h, time 3 day", "result": 41.3, "unit": "%"}, {"measurement": "Lym", "setting": "72 h, time 3 day", "result": 74.8, "unit": "%"}, {"measurement": "MCHC", "setting": "72 h, time 3 day", "result": 33.9, "unit": "%"}, {"measurement": "MCV", "setting": "72 h, time 3 day", "result": 63.4, "unit": "fL"}, {"measurement": "Mono", "setting": "72 h, time 3 day", "result": 6.8, "unit": "%"}, {"measurement": "Neu", "setting": "72 h, time 3 day", "result": 17, "unit": "%"}, {"measurement": "PT", "setting": "72 h, time 3 day", "result": 11.4, "unit": "s"}, {"measurement": "Plat", "setting": "72 h, time 3 day", "result": 114.4, "unit": "x10_4/uL"}, {"measurement": "RBC", "setting": "72 h, time 3 day", "result": 651.8, "unit": "x10_4/ul"}, {"measurement": "Ret", "setting": "72 h, time 3 day", "result": 10, "unit": "%"}, {"measurement": "WBC", "setting": "72 h, time 3 day", "result": 94, "unit": "x10_2/uL"}, {"measurement": "KIDNEY_L", "setting": "[1]", "result": 1, "unit": "g"}, {"measurement": "KIDNEY_R", "setting": "[1]", "result": 1, "unit": "g"}, {"measurement": "KIDNEY_TOTAL", "setting": "[1]", "result": 1.9, "unit": "g"}, {"measurement": "LIVER", "setting": "72 h, tissue Liver, time 3 day", "result": 10.2, "unit": "g"}, {"measurement": "ALP", "setting": "[2]", "result": 1001.2, "unit": "IU/L"}, {"measurement": "ALT", "setting": "[2]", "result": 38.2, "unit": "IU/L"}, {"measurement": "AST", "setting": "[2]", "result": 62.8, "unit": "IU/L"}, {"measurement": "BUN", "setting": "[2]", "result": 18.8, "unit": "mg/dL"}, {"measurement": "CRE", "setting": "[2]", "result": 0.6, "unit": "mg/dL"}, {"measurement": "Ca", "setting": "[2]", "result": 10.8, "unit": "mg/dL"}, {"measurement": "Cl", "setting": "[2]", "result": 103.6, "unit": "meq/L"}, {"measurement": "DBIL", "setting": "[2]", "result": 0.056, "unit": "mg/dL"}, {"measurement": "GLC", "setting": "[2]", "result": 195, "unit": "mg/dL"}, {"measurement": "IP", "setting": "[2]", "result": 7.7, "unit": "mg/dL"}, {"measurement": "K", "setting": "[2]", "result": 4.9, "unit": "meq/L"}, {"measurement": "LDH", "setting": "[2]", "result": 105.6, "unit": "IU/L"}, {"measurement": "Na", "setting": "[2]", "result": 139.4, "unit": "meq/L"}, {"measurement": "PL", "setting": "[2]", "result": 145, "unit": "mg/dL"}, {"measurement": "RALB", "setting": "[2]", "result": 4, "unit": "g/dL"}, {"measurement": "TBIL", "setting": "[2]", "result": 0.3, "unit": "mg/dL"}, {"measurement": "TC", "setting": "[2]", "result": 80, "unit": "mg/dL"}, {"measurement": "TG", "setting": "[2]", "result": 75.8, "unit": "mg/dL"}, {"measurement": "TP", "setting": "[2]", "result": 5.5, "unit": "g/dL"}, {"measurement": "gamma-GTP", "setting": "[2]", "result": 1.2, "unit": "IU/L"}, {"measurement": "TERMINAL_BW", "setting": "[…], time 7 day", "result": 242.4, "unit": "g"}, {"measurement": "TERMINAL_BW", "setting": "[…], time 14 day", "result": 296.6, "unit": "g"}, {"measurement": "TERMINAL_BW", "setting": "[…], time 28 day", "result": 395.2, "unit": "g"}, {"measurement": "APTT", "setting": "[…], time 7 day", "result": 17.2, "unit": "s"}, {"measurement": "Bas", "setting": "[…], time 7 day", "result": 0, "unit": "%"}, {"measurement": "Eos", "setting": "[…], time 7 day", "result": 1, "unit": "%"}, {"measurement": "Fbg", "setting": "[…], time 7 day", "result": 220.8, "unit": "mg/dL"}, {"measurement": "Hb", "setting": "[…], time 7 day", "result": 14.3, "unit": "g/dL"}, {"measurement": "Ht", "setting": "[…], time 7 day", "result": 41.8, "unit": "%"}, {"measurement": "Lym", "setting": "[…], time 7 day", "result": 75.2, "unit": "%"}, {"measurement": "MCHC", "setting": "[…], time 7 day", "result": 34.2, "unit": "%"}, {"measurement": "MCV", "setting": "[…], time 7 day", "result": 61.7, "unit": "fL"}, {"measurement": "Mono", "setting": "[…], time 7 day", "result": 8.2, "unit": "%"}, {"measurement": "Neu", "setting": "[…], time 7 day", "result": 15.4, "unit": "%"}, {"measurement": "PT", "setting": "[…], time 7 day", "result": 11.2, "unit": "s"}, {"measurement": "Plat", "setting": "[…], time 7 day", "result": 129.4, "unit": "x10_4/uL"}, {"measurement": "RBC", "setting": "[…], time 7 day", "result": 678.4, "unit": "x10_4/ul"}, {"measurement": "Ret", "setting": "[…], time 7 day", "result": 4.9, "unit": "%"}, {"measurement": "WBC", "setting": "[…], time 7 day", "result": 103.5, "unit": "x10_2/uL"}, {"measurement": "APTT", "setting": "[…], time 14 day", "result": 17.9, "unit": "s"}, {"measurement": "Bas", "setting": "[…], time 14 day", "result": 0, "unit": "%"}, {"measurement": "Eos", "setting": "[…], time 14 day", "result": 1, "unit": "%"}, {"measurement": "Fbg", "setting": "[…], time 14 day", "result": 227.8, "unit": "mg/dL"}, {"measurement": "Hb", "setting": "[…], time 14 day", "result": 14.5, "unit": "g/dL"}, {"measurement": "Ht", "setting": "[…], time 14 day", "result": 42.4, "unit": "%"}, {"measurement": "Lym", "setting": "[…], time 14 day", "result": 83.8, "unit": "%"}, {"measurement": "MCHC", "setting": "[…], time 14 day", "result": 34.3, "unit": "%"}, {"measurement": "MCV", "setting": "[…], time 14 day", "result": 62.7, "unit": "fL"}, {"measurement": "Mono", "setting": "[…], time 14 day", "result": 4.8, "unit": "%"}, {"measurement": "Neu", "setting": "[…], time 14 day", "result": 10.8, "unit": "%"}, {"measurement": "PT", "setting": "[…], time 14 day", "result": 11.8, "unit": "s"}, {"measurement": "Plat", "setting": "[…], time 14 day", "result": 117.1, "unit": "x10_4/uL"}, {"measurement": "RBC", "setting": "[…], time 14 day", "result": 676.2, "unit": "x10_4/ul"}, {"measurement": "Ret", "setting": "[…], time 14 day", "result": 5.6, "unit": "%"}, {"measurement": "WBC", "setting": "[…], time 14 day", "result": 121.2, "unit": "x10_2/uL"}, {"measurement": "APTT", "setting": "[…], time 28 day", "result": 18.6, "unit": "s"}, {"measurement": "Bas", "setting": "[…], time 28 day", "result": 0, "unit": "%"}, {"measurement": "Eos", "setting": "[…], time 28 day", "result": 1, "unit": "%"}, {"measurement": "Fbg", "setting": "[…], time 28 day", "result": 214.2, "unit": "mg/dL"}, {"measurement": "Hb", "setting": "[…], time 28 day", "result": 15.2, "unit": "g/dL"}, {"measurement": "Ht", "setting": "[…], time 28 day", "result": 45, "unit": "%"}]}
